These molecules were tested against Multidrug resistance-associated protein 1 (Homo sapiens, UniProt P33527) (assay: TP_TRANSPORTER: drug resistance in MRP1-expressing NIH/3T3 cells). Conditions: mouse, nih3t3.
Assay type: functional, cell-based

Sequence of Multidrug resistance-associated protein 1 (P33527 whole entry): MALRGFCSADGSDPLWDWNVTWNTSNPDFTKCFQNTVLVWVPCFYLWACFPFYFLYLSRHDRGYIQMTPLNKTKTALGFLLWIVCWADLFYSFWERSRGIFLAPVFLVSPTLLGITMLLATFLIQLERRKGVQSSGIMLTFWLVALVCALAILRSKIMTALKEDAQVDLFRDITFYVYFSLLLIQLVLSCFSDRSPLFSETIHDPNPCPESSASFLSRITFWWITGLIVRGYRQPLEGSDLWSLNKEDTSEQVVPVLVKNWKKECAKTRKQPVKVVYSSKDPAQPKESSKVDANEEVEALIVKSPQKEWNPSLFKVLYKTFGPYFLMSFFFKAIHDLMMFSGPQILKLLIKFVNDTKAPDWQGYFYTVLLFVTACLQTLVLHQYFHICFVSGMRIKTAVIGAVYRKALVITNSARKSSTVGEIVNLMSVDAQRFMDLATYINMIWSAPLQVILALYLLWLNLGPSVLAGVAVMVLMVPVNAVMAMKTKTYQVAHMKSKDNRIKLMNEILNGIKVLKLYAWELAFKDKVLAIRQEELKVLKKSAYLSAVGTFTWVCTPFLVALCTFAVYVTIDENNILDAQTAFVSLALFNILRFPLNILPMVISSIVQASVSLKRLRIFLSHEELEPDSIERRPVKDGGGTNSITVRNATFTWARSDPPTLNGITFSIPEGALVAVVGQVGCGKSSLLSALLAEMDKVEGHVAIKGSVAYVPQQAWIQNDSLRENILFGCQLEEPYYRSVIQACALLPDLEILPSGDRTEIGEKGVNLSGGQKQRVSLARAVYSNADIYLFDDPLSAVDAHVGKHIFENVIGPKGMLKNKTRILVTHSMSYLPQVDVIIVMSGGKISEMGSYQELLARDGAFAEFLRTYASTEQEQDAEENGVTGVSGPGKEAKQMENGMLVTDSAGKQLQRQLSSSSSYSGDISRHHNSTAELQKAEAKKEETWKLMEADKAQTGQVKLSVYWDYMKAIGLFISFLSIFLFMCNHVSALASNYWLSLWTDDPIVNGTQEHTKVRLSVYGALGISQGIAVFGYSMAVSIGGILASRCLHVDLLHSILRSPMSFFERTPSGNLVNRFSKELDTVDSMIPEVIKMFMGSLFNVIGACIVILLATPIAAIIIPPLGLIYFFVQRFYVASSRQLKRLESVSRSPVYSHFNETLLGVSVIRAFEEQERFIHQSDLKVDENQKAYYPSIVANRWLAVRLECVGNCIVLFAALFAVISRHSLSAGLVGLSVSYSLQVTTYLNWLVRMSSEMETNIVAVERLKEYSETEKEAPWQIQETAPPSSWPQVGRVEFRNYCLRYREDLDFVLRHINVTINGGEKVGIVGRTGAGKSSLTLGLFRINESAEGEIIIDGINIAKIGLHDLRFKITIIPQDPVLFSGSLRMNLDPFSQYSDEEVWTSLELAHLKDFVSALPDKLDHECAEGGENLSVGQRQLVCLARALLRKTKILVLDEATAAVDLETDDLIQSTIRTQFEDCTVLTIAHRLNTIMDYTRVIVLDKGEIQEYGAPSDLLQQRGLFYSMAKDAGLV

| SMILES | Activity |
| --- | --- |
| CC(C)OC(=O)Nc1cccc(Cl)c1 [CHLORPROPHAM] | substrate [] |
| COc1cccc2c1C(=O)c1c(O)c3c(c(O)c1C2=O)C[C@@](O)(C(=O)CO)C[C@@H]3O[C@H]1C[C@H](N)[C@H](O)[C@H](C)O1 [DOXORUBICIN] | substrate [] |
| COP(=S)(OC)Oc1ccc([N+](=O)[O-])c(C)c1 [FENITROTHION] | substrate [] |
| COc1ccc(C(c2ccc(OC)cc2)C(Cl)(Cl)Cl)cc1 [METHOXYCHLOR] | substrate [] |

From ChEMBL document CHEMBL2073994, “The multidrug resistance-associated protein 1 transports methoxychlor and protects the seminiferous epithelium from injury” (Toxicol Lett, 2003)
